Biological target: DOT1L (Homo sapiens, UniProt Q8TEK3)
Assay: Differential Scanning Fluorimetry (DFS) Assay
Format: binding
From the text: DFS enables assays suitable for high throughput screening assays for the effect of a small molecule on protein stability. DFS assays measures the thermal stability of a target protein and a subsequent increase in protein melting temperature upon binding of a ligand to the protein. Generally, specific binding will stabilize the protein. An exemplary protocol for performing a DFS for detecting the binding of (with or without a test compound) a fluorescence labeled probe to DOT1L, or an analog thereof, is as follows.
First, a protein solution comprising DOT1L or an active fragment thereof (e.g., DOT1L SET domain) is prepared in a suitable buffer at a desired concentration (e.g., 0.1 μM. 0.5 μM, 1.0 μM, 2.5 μM, 5.0 μM, 10 μM, 20 μM, or 100 μM). Then, a probe solution comprising a compound of formula (I), (le), (If) or (Ig) is prepared. A volume of the protein solution is combined with a volume of the probe solution in the presence or absence of a test compound. Binding of the probe to DOT1L or an active fragment thereof is then measured using a fluorometer.

Sequence of DOT1L (Q8TEK3 whole entry, species assumed): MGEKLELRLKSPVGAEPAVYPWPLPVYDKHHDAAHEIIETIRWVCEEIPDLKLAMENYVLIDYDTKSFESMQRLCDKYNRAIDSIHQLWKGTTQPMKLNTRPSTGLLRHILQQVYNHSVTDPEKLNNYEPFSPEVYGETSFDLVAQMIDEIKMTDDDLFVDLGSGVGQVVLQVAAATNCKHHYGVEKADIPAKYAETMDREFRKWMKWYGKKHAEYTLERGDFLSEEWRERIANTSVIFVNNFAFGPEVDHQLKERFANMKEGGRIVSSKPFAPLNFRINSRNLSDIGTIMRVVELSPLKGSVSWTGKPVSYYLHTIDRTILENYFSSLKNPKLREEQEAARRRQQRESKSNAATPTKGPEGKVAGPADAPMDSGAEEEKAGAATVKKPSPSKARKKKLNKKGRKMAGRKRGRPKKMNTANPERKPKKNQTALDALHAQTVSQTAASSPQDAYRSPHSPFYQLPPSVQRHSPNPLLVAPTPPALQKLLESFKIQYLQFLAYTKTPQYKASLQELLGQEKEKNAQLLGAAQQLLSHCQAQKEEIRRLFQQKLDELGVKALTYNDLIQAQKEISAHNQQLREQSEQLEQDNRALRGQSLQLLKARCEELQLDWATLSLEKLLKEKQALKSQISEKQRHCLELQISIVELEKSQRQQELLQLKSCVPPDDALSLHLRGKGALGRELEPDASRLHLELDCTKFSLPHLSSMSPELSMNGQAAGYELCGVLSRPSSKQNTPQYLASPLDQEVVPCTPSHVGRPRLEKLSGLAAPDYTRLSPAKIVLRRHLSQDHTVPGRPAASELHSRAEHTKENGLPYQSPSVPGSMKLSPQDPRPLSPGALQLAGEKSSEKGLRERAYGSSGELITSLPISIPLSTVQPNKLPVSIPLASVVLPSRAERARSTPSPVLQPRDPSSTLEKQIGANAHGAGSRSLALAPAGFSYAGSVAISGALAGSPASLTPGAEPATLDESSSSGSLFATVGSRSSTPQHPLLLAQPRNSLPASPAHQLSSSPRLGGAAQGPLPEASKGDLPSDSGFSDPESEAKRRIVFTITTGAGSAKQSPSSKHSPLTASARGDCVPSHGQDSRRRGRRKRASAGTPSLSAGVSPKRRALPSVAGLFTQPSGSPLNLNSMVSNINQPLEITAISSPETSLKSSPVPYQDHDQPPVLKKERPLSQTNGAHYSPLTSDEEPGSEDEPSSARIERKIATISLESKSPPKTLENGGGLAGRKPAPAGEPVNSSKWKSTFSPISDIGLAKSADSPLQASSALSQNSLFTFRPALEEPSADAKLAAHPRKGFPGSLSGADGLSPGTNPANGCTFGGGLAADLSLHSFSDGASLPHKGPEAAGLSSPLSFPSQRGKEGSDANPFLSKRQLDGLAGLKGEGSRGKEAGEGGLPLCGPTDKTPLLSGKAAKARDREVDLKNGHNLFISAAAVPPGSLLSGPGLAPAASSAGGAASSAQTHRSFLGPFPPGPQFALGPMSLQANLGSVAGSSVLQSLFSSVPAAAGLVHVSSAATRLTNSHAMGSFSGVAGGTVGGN

Compound: CC(C)N(CCCNC(=O)Nc1ccc(C(C)(C)C)cc1)C[C@H]1O[C@@H](n2cnc3c(NCCCC(=O)NCCCOCCOCCOCCCNC(=O)CCCC[C@@H]4SC[C@@H]5NC(=O)N[C@@H]54)ncnc32)[C@H](O)[C@@H]1O [JQPROB2B]
- binding effect / binding affinity against DOT1L (thermal stabilisation, FIG. 1): reasonable binding affinity

From patent US9535067B2, “DOT1L probes” (DANA-FARBER CANCER INSTITUTE, INC., priority 2013, dated 2017)
